Measured values taken from patent US8426369B2, “Prevention and treatment of colon cancer” (Rutgers, The State University of New Jersey, priority 2006, dated 2013).

Experiments:
IL-1β mRNA = assay: Quantitative RT-PCR of cytokine-induced IL-1β mRNA in HT-29 cells; format: cell-based, human; details: 10 and 30 μM
Procedure: (§1) The cell culture conditions and the reagents used in this example were described in Example 32. The gene-mediated expression of iNOS and COX-2 are reported to be regulated at both the transcriptional and translational levels. In order to understand the effect of pterostilbene on cytokine-induced expression of proinflammatory enzymes and cytokines, RNA samples after treatment of HT-29 cells with cytokines and/or pterostilbene were analyzed by quantitative RT-PCR for the induction of mRNA levels of iNOS, COX-2, IL-1β, IFN-γ and TNF-α genes.
(§2) To determine the changes of mRNA levels by pterostilbene and cytokines, quantitative RT-PCR analysis was utilized, as described previously (Lee et al., Mol Pharmacol 2006; 69(6):1840-1848). Briefly, the cells were incubated with compounds for indicated period and the cells were then lysed using Trizol to extract RNA. RNA was reverse transcribed into cDNA using a high capacity cDNA archive kit (Applied Biosystems, Foster City, Calif.). The cDNA was used for quantitative PCR which was run on the ABI Prism […] sequence Detection System. The primers for the iNOS, COX-2, IFN-γ, TNF-α, IL-1β and GAPDH were obtained from Applied Biosystems (Foster City, Calif.).

Elk-1 = assay: Western blot of cytokine-induced Elk-1 phosphorylation in HT-29 cells; format: cell-based, human; details: cytokine-treated HT-29
Procedure: (§3) The cell culture conditions and the reagents used in this example were described in Example 32. Whole cell extracts were collected after the various treatments and analyzed by western blotting. The protein samples were separated on 4-15% SDS-PAGE gels (Biorad, Hercules, Calif.) followed by transfer to a polyvinylidene fluoride membrane. The membranes were blocked with 5% milk in Tris buffer for 1 h and then incubated with the appropriate primary antibody solutions overnight at 4° C. The membranes were washed with Tris buffer, and incubated with horseradish peroxidase conjugated secondary antibody solutions for 1 h at room temperature.
The protein bands were visualized using a chemiluminescence based kit from Amersham Biosciences (Buckinghamshire, UK). The primary antibodies against iNOS, COX-2, IκBα, cyclin D1, c-myc (Santa Cruz Bio-technology, Santa Cruz, Calif.), phospho-STAT3, phospho-Erk1/2, phospho-JNK1/2, phospho-p38, phospho-Akt, phospho-ATF2, phospho-Elk1, PARP (Cell Signaling Technology Inc., Beverly, Mass.) and actin (Sigma, St. Louis, Mo.) and secondary antibodies (Santa Cruz Biotechnology, Santa Cruz, Calif.) were used for probing the abundance of the target protein in the samples. […]

HT-29 cells = assay: [3H]Thymidine incorporation cell proliferation assay in HT-29 cells; format: cell-based, human; details: Homo sapiens, HT-29, 30 μM at 3 days, read-out: inhibition of DNA synthesis
Procedure: The stilbenes illustrated in FIG. 4 were also used to investigate their ability to inhibit cell proliferation in HT-29 cell line. In this experiment, HT-29 cells (20,000 cells/well in 24-well plate) were treated with the respective stilbenes (each used either at 30 μM or 3 μM) in 10% FBS/DMEM for three days.
(§4) Human colon carcinoma cell lines HT-29 was obtained from the American Type Culture Collection (Manassas, Va.). The cells were maintained in Dulbecco's modification of Eagle's medium (DMEM) supplemented with 10% FBS and 1% penicillin/streptomycin at 37° C. and 5% CO2. The cytokine mixture, consisting of 10 ng/ml of TNF-α, IFN-γ and LPS, was used to induce iNOS and COX-2, unless otherwise mentioned. The cells were treated with the test compound either alone or in combination with cytokines for different time intervals and harvested for protein or RNA.
HT-29 cells were plated at a density of 20,000 cells/well in a 24 well plate and treated with varying concentrations of pterostilbene for a period of 1, 2 or 3 days at 37° C. Before harvest, the cells were incubated with 1 μCi [^3H]thymidine for 4 h at 37° C. and were washed with phosphate buffered saline. The cells were precipitated with cold 10% trichloroacetic acid for 10 min and solubilized with 0.5 ml solubilization buffer (0.2 M NaOH, 40 μg/ml salmon sperm DNA) for 2 h at room temperature. The lysate was transferred to 5 ml Ecolume and the [3H]thymidine incorporated into the DNA of HT-29 cells was determined using a scintillation spectrometer (Beckman Coulter, Fullerton, Calif.).

cyclin D1 = assay: Western blot of cyclin D1 in HT-29 cells; format: cell-based, human; details: 9 h or 18 h, especially at 9 h
Procedure: (§5) The cells were incubated with different concentrations of pterostilbene for 1, 2 and 3 days, and cell proliferation was estimated by measuring [^3H]thymidine incorporated into DNA. […] In order to evaluate whether pterostilbene potentiates cell cycle arrest or apoptosis in HT-29 cells, the effect of pterostilbene on the proteins regulating the cell cycle and/or apoptosis pathways was examined. Cells treated with pterostilbene for 9 h or 18 h were harvested and protein samples were analyzed by Western blotting (FIG. 8B).
as §3
(§6) The protein bands were visualized using a chemiluminescence based kit from Amersham Biosciences (Buckinghamshire, UK). […]

[1] = 25 mg pterostilbene/kg diet, hypercholesterolemic hamsters; cited from earlier work
p38 = assay: Western blot of phosphorylated p38 in cytokine-treated HT-29 cells; format: cell-based, human
Procedure: as §3
(§7) The protein bands were visualized using a chemiluminescence based kit from Amersham Biosciences (Buckinghamshire, UK). The primary antibodies against iNOS, COX-2, IκBα, cyclin D1, c-myc (Santa Cruz Bio-technology, Santa Cruz, Calif.), phospho-STAT3, phospho-Erk1/2, phospho-JNK1/2, phospho-p38, phospho-Akt, phospho-ATF2, phospho-Elk1, PARP (Cell Signaling Technology Inc., Beverly, Mass.) and actin (Sigma, St. Louis, Mo.) and secondary antibodies (Santa Cruz Biotechnology, Santa Cruz, Calif.) were used for probing the abundance of the target protein in the samples.

[2] = system: carcinogen-induced preneoplastic lesions; details: MMOC model; cited from earlier work
iNOS = assay: Cytokine-induced iNOS protein expression in HT-29 cells (Western blot); format: cell-based, human; details: HT-29; for inhibition of iNOS expression: with cytokine mixture (each 10 ng/ml), 15 hr
Procedure: HT-29 human colon adenocarcinoma cells were grown in 10% FBC/DMEM. Cells (about 600,000 cells/well) were plated in 6-well plate and treated with stilbene analogs shown in FIG. 4 (each at 10 μM) for 15 hours together with cytokine mixture comprising TNF-a, IFN0g, and LPS (each at 10 ng/ml). Cell lysates were prepared and subjected to Western Blot analysis.
as §4, §3, §7

TGF-β ligands = assay: Induction of TGF-β ligands in HT-29 cells; format: cell-based, human; details: HT-29, data not shown
Text: The significance of the transforming growth factor (TGF-β) pathway in down-regulating iNOS expression by pterostilbene was also investigated since TGF-β is a very potent inhibitor of iNOS and cytokines regulate Smad signaling of the TGF-β pathway. However, there was no effect of pterostilbene on activated Smad levels (p-Smad3) or in inducing TGF-β ligands (data not shown).

COX-2 mRNA = assay: Quantitative RT-PCR of cytokine-induced COX-2 mRNA in HT-29 cells; format: cell-based, human; details: 10 and 30 μM
Procedure: as §1, §2

p-JNK1/2 = assay: Western blot of p-JNK1/2 in cytokine-treated HT-29 cells; format: cell-based, human
Procedure: as §3, §7

c-myc = assay: Western blot of c-myc in HT-29 cells; format: cell-based, human; details: 9 h or 18 h, especially at 9 h
Procedure: as §5, §3, §6

COc1cc(/C=C/c2ccc(O)cc2)cc(OC)c1 [pterostilbene, (E)-4-(3,5-dimethoxystyryl)phenol]
IL-1β mRNA induction by the cytokine mixture (IL-1β mRNA): strongly inhibited
cytokine-induced activation (phosphorylation) of Elk-1 (Elk-1): effective in inhibiting
inhibition at 30 µM (HT-29 cells): 71 ± 3%
cyclin D1 level (cyclin D1): effective in reducing
plasma cholesterol and lipoproteins [1]: lowered plasma cholesterol and lipoproteins
activation of p38 by cytokines (p38): strongly inhibited
preventing carcinogen-induced preneoplastic lesions [2]: as effective as resveratrol
inhibition of iNOS expression (iNOS; 1 μM): 14%
inhibition of iNOS expression (iNOS; 10 μM): 61%
induction of iNOS by the cytokine mixture (iNOS; 30 μM, 9, 12 and 15 h): markedly blocked
inhibition of iNOS expression (iNOS; 30 μM): 77%
induction of iNOS by the cytokine mixture, different concentrations (iNOS; different concentrations): dose-dependent manner
inducing TGF-β ligands (TGF-β ligands): no effect
COX-2 mRNA induction by the cytokine mixture (COX-2 mRNA): strongly inhibited
p-JNK1/2 protein levels (p-JNK1/2): only a small effect
c-myc level (c-myc): effective in reducing
